Measured values: the METLIN SMRT retention time set (Domingo-Almenara et al. 2019)

Assay: gradient 5% acetonitrile 3 min, to 50% in 2 min, to 85% in 15 min, held 3 min, 100 µL/min
Settings: column: Zorbax Extend-C18 2.1 x 50 mm; eluents: water / acetonitrile, 0.1% formic acid
Summary of the method: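 Values are retention times taken from adduct peaks that software picked and an analyst inspected. The pure standards were run as mixtures of ~100 molecules on HPLC linked to a quadrupole time-of-flight mass spectrometer, in positive and negative ionization mode. A Zorbax Extend-C18 column (2.1 × 50 mm, 1.8 μm) was used at 100 μL/min with water and acetonitrile, each including 0.1% formic acid.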

SMILES | RP-LC retention time [s]
CS(=O)(=O)Nc1cccc(NC(=O)CN2CCN(c3ccc4c(c3)OCCO4)C2=O)c1 | 657
O=C(NCCC1CCN(C(=O)Nc2cc(F)cc(F)c2)CC1)c1ccsc1 | 688
O=C(CN1C(=O)N/C(=C\c2ccc(Cl)cc2)C1=O)Nc1ccc(Cl)cc1 | 899
CC(NC(=O)Cc1nnc(-c2cnccn2)o1)c1ccc(F)cc1 (stereo not given) | 681
COc1ccc(-c2nn3c(-c4ccc(N(C)C)cc4)nnc3s2)cc1 | 1120
CCOc1ccc(-c2[nH]nc3nc(-c4ccc(OC)cc4)cc(C(=O)O)c23)cc1 | 654
Cc1cc2nn(CC(=O)Nc3ccc(F)c(F)c3)c(=O)n2c(Nc2ccc(F)cc2)n1 | 1020
CCOC(=O)c1cnc(N2CCN(c3ccccc3OC)CC2)c2ccccc12 | 1150
CC1=C(c2ccc(C)cc2)S(=O)(=O)N=C1N1CCCC1 | 816
O=C(Cn1ccn2nc(-c3ccc(Cl)cc3)cc2c1=O)N1CCCc2ccccc21 | 1080
COc1ccc(NC(=O)c2c(F)cccc2F)c([N+](=O)[O-])c1 | 831
Cc1sc(NC(=O)Cc2nn(C)c(=O)c3ccccc23)nc1-c1ccc(Cl)cc1 | 982
CCC(=O)N1c2ccc(S(=O)(=O)CCC(=O)N3CCN(c4ccc(OC)cc4)CC3)cc2CC1C (stereo not given) | 785
Cn1nccc1C(=O)N1CCCC1c1nc(-c2ccc(F)cc2F)no1 (stereo not given) | 794
CC12CC(Br)(Br)C(=O)C3C1CCCC32 | 1100
Cc1ccc(C)c(C2=NC3(CCN(C(C)C)CC3)NC(c3cc(Cl)ccc3O)C2)c1 (stereo not given) | 679
O=C(Nc1ccc(F)cc1)C1CCCN(c2ccc(=O)n(-c3ccc(F)cc3)n2)C1 (stereo not given) | 849
CCN1C(=O)c2ccccc2Oc2ccc(C(=O)NC3CC3)cc21 | 751
CN(CCc1noc(COc2ccc(Cl)cc2)n1)C(=O)Nc1ccc(F)cc1 | 934
COCCn1cc(C(=O)Nc2cccc(F)c2)c2nn(-c3ccccc3)c(=O)c-2c1 | 970

SMILES | RP-LC retention time [s]
Cc1ccccc1-c1noc(-c2nn(-c3ccc(Cl)cc3)ccc2=O)n1 | 1010
Cc1oc(-c2ccc(C(=O)N3CCN(C)CC3)cc2)nc1CN1CCc2ccccc21 | 675
Cc1nc(-c2ccc3c(c2)CCN3C(=O)c2cccs2)cs1 | 953
O=C(c1cc(-c2ccncc2)n[nH]1)N1CCN(C(=O)c2cc3ccccc3[nH]2)CC1 | 598
COc1ccc(C(O)CN2CCN(c3ccccc3)CC2)cc1 (stereo not given) | 630
Cc1ccc2[nH]c(=O)c(CCC(=O)NCc3ccccn3)cc2c1 | 596
Cc1cc(N2CCN(c3ccccn3)CC2)n2nc(C)c(-c3ccc(F)cc3)c2n1 | 664
Cc1c(Cl)cccc1NC(=O)C1CCCN(c2nnc(C)c3c(C)n(-c4ccccc4)nc23)C1 (stereo not given) | 784
CSc1ccc(CNC(=O)c2ccc3c(c2)NC(=O)C2CCCCN32)cc1 (stereo not given) | 850
COc1ccc(CN2CCC3(CCC3O)CC2)cc1OC (stereo not given) | 562
O=S(=O)(c1ccc2c(c1)OCCO2)N1CCC[C@H]1c1nc(-c2ccc(F)cc2)n[nH]1 | 799
Cc1nc2ccccc2c(=O)n1Cc1noc(-c2ccc3c(c2)OCO3)n1 | 831
CC(C)C(=O)Nc1ccc2c(c1)N(C(=O)c1cccs1)CCC2 | 819
CCOc1ccc(NC(=O)CSc2nccc(N3CCN(c4cccc(OC)c4)CC3)n2)cc1 | 765
O=C1CCN(C(=O)COc2ccccc2Cl)c2ccccc2N1 | 718
CC1=C(c2ccc(Cl)cc2)S(=O)(=O)N=C1N1CCCN(C(=O)C(C)C)CC1 | 822
CCOC(=O)c1noc2ncnc(NCCc3ccc(OCC)cc3)c12 | 1060
CN(C)c1ccc(NS(=O)(=O)c2c(F)c(F)c(F)c(F)c2F)cc1 | 869
Cc1ccc(NC(=O)N2CCCC(Cn3cnc4cccnc43)C2)c(C)c1 (stereo not given) | 680
Cc1cnc(C2CN(Cc3cccnc3)C2)n1Cc1ccccc1 | 536

SMILES | RP-LC retention time [s]
COC(=O)c1ccccc1Nc1c(-c2ccc(OC)c(OC)c2)nc2cnccn12 | 732
Cc1ccc(-c2c(N3CCN(c4ccccn4)CC3)c(=O)c2=O)cc1 | 660
Cn1cc(CCN2CCC(C(=O)NCc3ccccc3Cl)CC2)c2cccnc21 | 617
Cc1ccc2nc(NC(=O)CSc3nnc(Cc4c(C)[nH]c(=O)[nH]c4=O)o3)sc2c1 | 643
Cn1nc(CNC(=O)c2cccc(NC(=O)c3ccco3)c2)c2ccccc21 | 736
Cc1ccc2c(c1)N(CCC(C)C)N=C(C(=O)N1CCCC1)S2(=O)=O | 939
CCN1C(=O)c2cccnc2Sc2cc(NC(=O)c3sccc3C)ccc21 | 842
CCCOc1nc2ccccc2nc1N1CCCC(C(=O)NCc2ccc(C)cc2)C1 (stereo not given) | 1240
COc1ccc(NC(=O)C2CCN(S(=O)(=O)c3ccc4c(c3)CCCN4C(C)=O)CC2)cc1 | 780
Cc1ccccc1-c1noc(Cn2nc(-c3ccccc3F)ccc2=O)n1 | 986
CCOc1ccccc1CN1CCc2nc(N3CCN(CC)CC3)ncc2C1 | 1120
Cn1c(=O)c2c(nc(Cc3ccc(N)cc3)n2C)n(C)c1=O | 621
Cc1cc(C(=O)Nc2nc3c(F)cccc3s2)no1 | 780
O=c1ccn(-c2ccc(Cl)cc2)nc1-c1nc(-c2ccc(F)cc2)no1 | 929
CCN1C(=O)c2cc(S(=O)(=O)Nc3ccc(F)cc3)ccc2Oc2cccnc21 | 957
CC1=C(c2ccc(Cl)cc2)S(=O)(=O)N=C1N1CCC(NC(=O)C2CCCO2)CC1 (stereo not given) | 779
Cc1cccc(CC(=O)N2C[C@@H]3C[C@H](NC(=O)c4ccccc4)[C@H]2C3)c1 | 794
COC(=O)c1ccc(CSc2nnc(N3CCN(c4ccccc4OC)CC3)s2)o1 | 894
O=[N+]([O-])c1ccc(S(=O)(=O)N2CCN(c3ccc(NCC4CCCO4)nn3)CC2)cc1 (stereo not given) | 568

The remaining lines, values ahead:

RP-LC retention time [s] | SMILES
630 | Cc1cc(C)n(Cc2ccc(C(=O)N3C[C@H]4C[C@H](C3)[C@H]3CCCC(=O)N3C4)o2)n1
743 | CN(C)C(=O)c1ccc2c(c1)N(CC(=O)NC1CCCCC1)C(=O)C1CCCCN21 (stereo not given)
680 | Cc1cccc2nnc(N3CCCC(C(=O)Nc4ccccc4)C3)n12 (stereo not given)
999 | CC1CCN(C(=O)C2=CN(c3ccccc3)c3cc(Cl)ccc3S2(=O)=O)CC1
588 | CCNC(=O)c1c2c(nc3ccc(F)cc13)CCCC2
702 | CCc1c(C(=O)O)nnn1-c1ccc2c(c1)OCCO2
758 | O=C(NC(c1ccccc1)c1nnc(N2CCOCC2)o1)c1cccc(F)c1 (stereo not given)
656 | CC(C)OCCCNC(=O)c1ccc2cnn(Cc3ccc(F)cc3)c2c1
672 | COCc1nc(C2CCN(C(=O)C3CCC3)C2)no1 (stereo not given)
688 | Cc1ccc(CS(=O)(=O)N2CCC(CN3CCCC(C)C3)CC2)cc1 (stereo not given)
589 | CCn1cnc(S(=O)(=O)N2CCC(C(=O)NCCc3nc4ccc(C)cc4[nH]3)CC2)c1
698 | Nc1cc(C2CCN(C(=O)Nc3ccccc3C(F)(F)F)CC2)no1
1140 | COc1ccc(S(=O)(=O)N2CCc3nc(-c4ccc(F)cc4)ncc3C2)cc1Cl
876 | CCN1C(=O)C(C)(C(=O)Nc2ccccc2C)Oc2cccnc21 (stereo not given)
543 | Cc1oc(-c2[nH]ncc2C(=O)N(C)C)cc1S(=O)(=O)NCCN1CCOCC1
833 | COCCN1C(=O)CCc2cc(NS(=O)(=O)c3cc(C)c(C)cc3C)ccc21

RP-LC retention time [s] | SMILES
738 | CCN1C(=O)C(CC(=O)NCCC(C)C)Sc2ncccc21 (stereo not given)
662 | Cc1ccccc1CNC(=O)Cn1c(=O)c2nncn2c2ncccc21
587 | CCCC(=O)Nc1ccc(-c2cn3ccc(C)nc3n2)cc1
1100 | CCc1cc(=O)n(CC(=O)Nc2ccc3c(c2)OCO3)c(-c2cccc(F)c2)n1
1020 | Cc1ccc(-c2ccnc3nc(-c4ccccc4)nn23)cc1
800 | COc1ccc(CC(=O)N2CCCC2c2cc(C(C)C)on2)cc1OC (stereo not given)
940 | Cc1ccc2ncn(C3CCN(S(=O)(=O)c4ccccc4F)CC3)c(=O)c2c1
535 | CCCNC(=O)N1CCCN(C2CCN(Cc3ccccc3)C2=O)CC1 (stereo not given)
1000 | Cc1ccccc1Nc1c(-c2cccc(Cl)c2)nc2cnccn12
684 | O=C(NCCn1c(-c2ccc(F)cc2)nc2cccnc21)NCc1ccccc1
627 | Cc1nc(OCC(=O)NCCN2CCCC2)c2c(-c3ccccc3)noc2n1
702 | O=C(NCc1cccc(F)c1)C1CCCN(c2cnc3nccnc3c2)C1 (stereo not given)
1040 | COc1ccc(NC(=O)C2CCN(S(=O)(=O)c3ccc4[nH]c5c(c4c3)CCCCC5)CC2)cc1
568 | O=C(NCc1ccco1)C(=O)NCC(c1cccnc1)N1CCOCC1 (stereo not given)
1160 | COc1ccccc1-c1csc(-c2nnn(-c3ccc(C)cc3)c2N)n1
